{
  "source": "patent US12642781B2",
  "about": "“Adenomyosis associated infertility and hdac inhibitors” (NADEZHDA REPRODUCTIVE SCIENCE OOD, priority 2020, dated 2026)",
  "key": {"[1]": {"tested_on": "adenomyosis associated infertility", "assay": "Pregnancy outcome of IVF after the treatment regimen", "type": "in vivo, women", "procedure": "Sodium valproate 500 mg prolonged-release tablets were used. […] There were tested 37 women with adenomyosis and a history of infertility and/or abortions. […] One month after End of Treatment, a new IVF cycle is ready to be started, and pregnancies are followed up to full term birth. […] Pregnancy rate was measured and is described below in Table 6: […]"}, "[2]": {"assay": "Safety and tolerability of the treatment regimen (safety lab blood tests, adverse events)", "type": "in vivo, women", "procedure": "(§1) Intralesional application must start with the lesions located closest to the cavum uteri, in the so-called junctional zone, because these have the strongest influence on fertility. The procedure is performed under short-term intravenous anesthesia to ensure patient comfort and immobility during application; patients report no pain after anesthesia wear off.\nThe safety lab panel included liver function tests (AST, ALT, LDH), as well as complete blood count."}, "adenomyosis lesions": {"tested_on": "adenomyosis lesions", "assay": "Clinical treatment of women with adenomyosis: lesion assessment by 2D/3D ultrasound, MRI and colour Doppler", "type": "in vivo", "procedure": "A 100 mg/ml solution of sodium valproate for injection or infusion was prepared.\nThis solution is drawn in 5 ml Luer lock syringe and administrated in the lesion(s) through special needle. We have used—OPU needle 18G, with echo tip and length at least 15 cm. The solution was administered in the ultrasound-guided manner in all visible lesions. The access was through the vagina.\nas §1\nThe first oral dose must be taken between 9 h and 16 h after the end of intralesion application in order to achieve a steady state in patient plasma.\nSodium valproate 500 mg prolonged-release tablets were used.\nTo eliminate operator bias, all TVUS scans of the same patient at baseline and after start of treatment were performed by the same specialist on the same ultrasound machine.\nThere were tested 37 women with adenomyosis and a history of infertility and/or abortions."}, "[3]": {"settings": "after the first two months of oral VPA following intralesional VPA administration"}},
  "data": [
    {"smiles": "CCCC(CCC)C(=O)O", "note": "[VPA, valproic acid]", "values": [
      {"measurement": "Observed Prop. (Binomial Test, Pregnancy CODE 1.00)", "setting": "[1]; Group 2, N 13 of 37, Test Prop. .8, Exact Sig. (1-tailed) .023", "result": ".4"},
      {"measurement": "pregnancy terminations, or uterine obstetric complications during C-Section", "setting": "[1]; in vivo", "result": "No pregnancy terminations, or uterine obstetric complications during C-Section"},
      {"measurement": "pregnancy rate", "setting": "[1]; new IVF cycle one month after End of Treatment, results up to date", "result": 85, "unit": "%"},
      {"measurement": "healthy full-term babies", "setting": "[1]; results up to date", "result": 10},
      {"measurement": "patients who reported dizziness and stopped oral VPA intake", "setting": "[2]; 1000 mg VPA daily oral", "result": 2},
      {"measurement": "pain after intralesional application", "setting": "[2]; after anesthesia wear off", "result": "no pain"},
      {"measurement": "safety lab results (AST, ALT, LDH, complete blood count)", "setting": "[2]; before start and every 30 days till end of treatment", "result": "in normal range"},
      {"measurement": "response of lesions to treatment", "setting": "adenomyosis lesions; 37 women with adenomyosis and a history of infertility and/or abortions", "result": "Some of the lesions disappeared completely and some of them were significantly reduced in size"},
      {"measurement": "central vascularity of lesions (Colour Doppler)", "setting": "adenomyosis lesions; [3]", "result": "absent"},
      {"measurement": "reduction in size of lesion dimensions (ultrasound)", "setting": "adenomyosis lesions; [3]", "result": "up to 2 fold"},
      {"measurement": "progression of adenomyosis", "setting": "adenomyosis lesions; monthly follow-up for three months after end of treatment", "result": "no progression of adenomyosis was observed"}
    ]}
  ]
}
